Test results as given in patent publication EP3436024B1, “3-BETA-METHOXY-PREG FOR USE IN THE TREATMENT OF TREATMENT RESISTANT DEPRESSION” (Mapreg, priority 2016, dated 2017).

Tests used:
[1] = target: Serotoninergic Transporter (Homo sapiens, UniProt P31645); test: CNS receptor binding assay, serotoninergic transporter; conditions: MAP4343 10 µM; [^3H] imipramine; Human recombinant (CHO cells); read-out: % Inhibition of control specific binding
Procedure: (§1) MAP4343 has been screened for in vitro affinity to 80 different CNS neurotransmitters receptors using various validated binding assays.
(§2) Table 4. In vitro affinity of MAP4343 (10 µM) for CNS neurotransmitter receptors associated with side effects and/or abuse liability. Data are the average of two individual assays for each receptor and are expressed as % inhibition of the control specific binding of the reference compound. Results showing an inhibition higher than 50% are considered to represent significant effects of the test compound.

[2] = system: Wistar Kyoto (WKY) rats; test: Forced swimming test (FST), WKY rats; format: in vivo, rat; conditions: dose-ranging, MAP4343 15 mg/kg, Fig. 6B
Procedure: 3B-methoxy-PREG (also referred to as "MAP4343" in Example 4) was dissolved in sesame oil by sonication using a Sonifer-450 (Branson Ultrasonics Corporation, Danbury, USA) during 1 cycle of 5 pulses in sesame oil. Fluoxetine (Biotrend, Köln, Germany) and Ketamine (Sigma-Aldrich, St-Quentin Fallvier, France) were dissolved in sterile saline solution (NaCl 0.9%). The drug formulations were prepared freshly each day of treatment. MAP4343 was administered subcutaneously (ranging of 1-15 mg/Kg/day) while fluoxetine and ketamine were injected intraperitonealy (10 mg/Kg/day and 30 mg/Kg/day, respectively).
After a 6-day period of acclimatization, all experimental groups received daily successive subcutaneous (250 µl per rat) and intraperitoneal (1 ml/kg) injections. […]
Rats were submitted to the forced swimming test (FST), according the procedure initially described by (Detke et al., 1995) and slightly modified by (Bianchi et al., 2002). […] The pre-test and test sessions were recorded using a video camera placed above the cylinder for subsequent behavioral analysis. The immobility time (in sec) was blindly measured by two independent experimenters from recorded videos. […]
The effects of a dose-ranging administration of MAP4343 were tested in WI and WKY rats on their immobility time measured in FST.

[3] = target: Noradrenergic β1 (Homo sapiens, UniProt P08588); test: CNS receptor binding assay, β1; conditions: MAP4343 10 µM; [^3H] (-) CGP 12177; Human recombinant (HEK-293 cells); read-out: % Inhibition of control specific binding
Procedure: as §1, §2

[4] = target: T1, human progesterone receptor(PR) (Homo sapiens, UniProt P06401); test: Test of progesterone receptor agonist activity (MMTV-luciferase transactivation in transfected HEK293T cells); format: cell-based; conditions: 24 hours, increasing amounts, Figure 1
T1 construct: expressed in transfected cells; host or cells: HEK293T
T1 sequence (P06401 1-933): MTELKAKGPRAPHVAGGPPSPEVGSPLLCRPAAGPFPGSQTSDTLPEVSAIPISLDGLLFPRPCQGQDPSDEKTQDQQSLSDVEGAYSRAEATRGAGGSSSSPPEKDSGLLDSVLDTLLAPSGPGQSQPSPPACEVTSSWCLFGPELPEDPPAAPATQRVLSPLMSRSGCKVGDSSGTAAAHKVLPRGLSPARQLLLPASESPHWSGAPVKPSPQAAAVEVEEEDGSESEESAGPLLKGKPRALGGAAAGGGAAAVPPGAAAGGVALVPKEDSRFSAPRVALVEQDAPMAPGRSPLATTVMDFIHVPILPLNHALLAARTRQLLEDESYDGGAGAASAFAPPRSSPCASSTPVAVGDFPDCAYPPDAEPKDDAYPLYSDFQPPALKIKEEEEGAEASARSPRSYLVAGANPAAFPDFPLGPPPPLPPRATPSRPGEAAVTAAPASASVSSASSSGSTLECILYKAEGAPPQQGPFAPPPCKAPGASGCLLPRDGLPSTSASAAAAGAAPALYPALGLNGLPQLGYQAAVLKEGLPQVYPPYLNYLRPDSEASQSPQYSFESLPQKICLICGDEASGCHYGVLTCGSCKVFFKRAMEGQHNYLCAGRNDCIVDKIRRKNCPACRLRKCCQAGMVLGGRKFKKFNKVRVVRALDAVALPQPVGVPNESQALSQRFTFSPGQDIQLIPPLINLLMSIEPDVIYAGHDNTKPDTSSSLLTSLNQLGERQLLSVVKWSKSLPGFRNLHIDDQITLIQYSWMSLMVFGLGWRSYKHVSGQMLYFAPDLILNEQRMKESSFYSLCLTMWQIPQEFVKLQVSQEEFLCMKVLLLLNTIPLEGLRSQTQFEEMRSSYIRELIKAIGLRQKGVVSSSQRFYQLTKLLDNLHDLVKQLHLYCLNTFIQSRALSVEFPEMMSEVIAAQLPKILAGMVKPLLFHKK
Procedure: The main experimental setting used is the following: HEK293T cells were transiently transfected, using calcium phosphate precipitation technology, with expression vectors pSG5hPR (which permits expression of human progesterone receptor(PR)), pFC31-luc (contains the luciferase gene under the control of the MMTV promoter, which is in turn activated by binding of a progestin to progesterone receptor) and pcbetagal (which permits expression of betagalactosidase), and cultured during 24 hours with increasing amounts of various compositions: • 1. […] Test of progesterone receptor […] activity: transfected cells were cultured with progesterone (1 nM) and increasing amounts of RU486 (a well-known progesterone receptor antagonist) or 3-methoxy-pregnenolone. With this setting, a compound with progesterone receptor antagonist activity competes with progesterone for the occupation of progesterone receptor and results in a progressive loss of transactivation activity when the amount of this compound is increased compared to progesterone.

[5] = system: GABA (non-selective); test: CNS receptor binding assay, GABA (non-selective); conditions: MAP4343 10 µM; [^3H] GABA; rat cerebral cortex
Procedure: as §1, §2

[6] = target: T2, Muscarinic (Cholinergic) M5 (Homo sapiens, UniProt P08912); test: CNS receptor binding assay, M5; conditions: MAP4343 10 µM; [^3H] 4-DAMP; Human recombinant (CHO cells); read-out: % Inhibition of control specific binding
T2 construct: expressed in transfected cells; host or cells: CHO cells
Procedure: as §1, §2

T2 sequence (P08912 whole entry): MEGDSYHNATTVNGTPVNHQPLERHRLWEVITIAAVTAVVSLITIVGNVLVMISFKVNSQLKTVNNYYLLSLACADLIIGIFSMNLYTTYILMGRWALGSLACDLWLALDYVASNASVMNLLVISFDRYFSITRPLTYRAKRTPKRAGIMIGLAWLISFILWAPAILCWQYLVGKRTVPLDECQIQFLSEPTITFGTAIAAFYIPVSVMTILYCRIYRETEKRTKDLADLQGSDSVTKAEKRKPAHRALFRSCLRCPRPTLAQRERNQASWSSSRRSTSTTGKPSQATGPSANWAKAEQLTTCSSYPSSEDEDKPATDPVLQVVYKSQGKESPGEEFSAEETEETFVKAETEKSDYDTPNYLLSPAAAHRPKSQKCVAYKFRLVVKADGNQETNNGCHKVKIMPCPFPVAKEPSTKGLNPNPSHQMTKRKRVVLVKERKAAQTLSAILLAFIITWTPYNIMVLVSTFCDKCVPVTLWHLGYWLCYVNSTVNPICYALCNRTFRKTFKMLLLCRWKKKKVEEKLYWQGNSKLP
Sequence of Serotoninergic Transporter (P31645 whole entry): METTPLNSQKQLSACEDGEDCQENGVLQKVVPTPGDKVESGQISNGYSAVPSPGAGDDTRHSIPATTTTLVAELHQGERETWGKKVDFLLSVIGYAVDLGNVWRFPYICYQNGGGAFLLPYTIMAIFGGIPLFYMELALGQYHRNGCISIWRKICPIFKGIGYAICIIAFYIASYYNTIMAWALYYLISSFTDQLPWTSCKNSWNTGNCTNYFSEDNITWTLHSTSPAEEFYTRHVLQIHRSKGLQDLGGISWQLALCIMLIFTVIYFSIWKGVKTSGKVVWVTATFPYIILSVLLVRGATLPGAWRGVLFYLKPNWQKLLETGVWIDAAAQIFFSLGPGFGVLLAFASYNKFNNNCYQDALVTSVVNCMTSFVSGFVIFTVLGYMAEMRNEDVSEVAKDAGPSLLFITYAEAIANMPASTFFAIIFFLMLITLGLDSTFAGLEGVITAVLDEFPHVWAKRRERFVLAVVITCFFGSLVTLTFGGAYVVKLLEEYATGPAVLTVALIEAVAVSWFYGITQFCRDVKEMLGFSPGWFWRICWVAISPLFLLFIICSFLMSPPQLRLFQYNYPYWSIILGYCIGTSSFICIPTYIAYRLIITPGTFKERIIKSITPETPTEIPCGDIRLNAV
Sequence of Noradrenergic β1 (P08588 whole entry): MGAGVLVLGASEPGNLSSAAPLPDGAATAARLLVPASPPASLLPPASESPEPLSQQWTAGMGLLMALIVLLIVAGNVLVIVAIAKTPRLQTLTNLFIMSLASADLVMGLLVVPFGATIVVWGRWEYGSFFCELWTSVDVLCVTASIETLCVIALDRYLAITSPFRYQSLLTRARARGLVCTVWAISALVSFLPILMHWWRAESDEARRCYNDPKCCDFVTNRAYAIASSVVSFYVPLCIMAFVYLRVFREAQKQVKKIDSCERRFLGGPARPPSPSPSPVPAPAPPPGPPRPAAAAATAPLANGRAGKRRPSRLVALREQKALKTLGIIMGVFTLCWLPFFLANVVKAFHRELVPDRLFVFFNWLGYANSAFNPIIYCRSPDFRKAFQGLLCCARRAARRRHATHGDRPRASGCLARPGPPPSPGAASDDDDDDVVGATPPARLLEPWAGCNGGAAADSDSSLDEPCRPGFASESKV

SMILES: CO[C@H]1CC[C@@]2(C)C(=CC[C@H]3[C@@H]4CC[C@H](C(C)=O)[C@@]4(C)CC[C@@H]32)C1 (stereo in doubt) [MAP4343, 3β-methoxy-pregna-5-ene-20-one]
- inhibition at 10 µM [1]: 3%
- immobility time measured in FST, change as compared to WKY receiving vehicle alone [2]: -25%
- inhibition at 10 µM [3]: 1%
- progesterone receptor agonist activity (transactivation activity leading to the expression of luciferase) [4]: does not permit such a transactivation activity
- % Inhibition of control specific binding [5]: 2%
- inhibition at 10 µM [6]: 12%
